Bridge positions count the residues as written; N and C are the ends. Peptide text beside a SMILES is read from it.
Key:
MMP-8 = MMP-8 (Homo sapiens, UniProt P22894); assay: biochemical
Protocol: (§1) Inhibition of MMPs by RTD-1 was performed as described, incubating each enzyme with 0–100 μg/ml of RTD-1. IC50 values were calculated by GraphPad Prism 5.01 (GraphPad Software, San Diego, CA) utilizing a non-linear curve fit of log [inhibitor] versus response with variable slope.

MMP-13 = MMP-13 (Homo sapiens, UniProt P45452); assay: biochemical
Protocol: as §1

MMP-14 = MMP-14 (Homo sapiens, UniProt P50281); assay: biochemical
Protocol: as §1

MMP-3 = MMP-3 (Homo sapiens, UniProt P08254); assay: biochemical
MMP-3, sequence (P08254 100-477, species assumed): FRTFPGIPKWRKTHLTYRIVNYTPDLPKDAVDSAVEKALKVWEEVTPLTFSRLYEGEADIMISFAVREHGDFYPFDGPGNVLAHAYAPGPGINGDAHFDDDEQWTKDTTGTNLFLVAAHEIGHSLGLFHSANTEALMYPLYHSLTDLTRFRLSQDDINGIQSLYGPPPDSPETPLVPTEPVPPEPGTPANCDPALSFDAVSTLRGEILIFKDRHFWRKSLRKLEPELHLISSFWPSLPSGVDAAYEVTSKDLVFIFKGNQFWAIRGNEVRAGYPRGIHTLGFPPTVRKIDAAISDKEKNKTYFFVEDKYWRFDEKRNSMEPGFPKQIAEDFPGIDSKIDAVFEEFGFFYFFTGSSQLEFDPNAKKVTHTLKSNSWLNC
Protocol: as §1

MMP-2 = MMP-2 (Homo sapiens, UniProt P08253); assay: biochemical
MMP-2, sequence (P08253 110-660, species assumed): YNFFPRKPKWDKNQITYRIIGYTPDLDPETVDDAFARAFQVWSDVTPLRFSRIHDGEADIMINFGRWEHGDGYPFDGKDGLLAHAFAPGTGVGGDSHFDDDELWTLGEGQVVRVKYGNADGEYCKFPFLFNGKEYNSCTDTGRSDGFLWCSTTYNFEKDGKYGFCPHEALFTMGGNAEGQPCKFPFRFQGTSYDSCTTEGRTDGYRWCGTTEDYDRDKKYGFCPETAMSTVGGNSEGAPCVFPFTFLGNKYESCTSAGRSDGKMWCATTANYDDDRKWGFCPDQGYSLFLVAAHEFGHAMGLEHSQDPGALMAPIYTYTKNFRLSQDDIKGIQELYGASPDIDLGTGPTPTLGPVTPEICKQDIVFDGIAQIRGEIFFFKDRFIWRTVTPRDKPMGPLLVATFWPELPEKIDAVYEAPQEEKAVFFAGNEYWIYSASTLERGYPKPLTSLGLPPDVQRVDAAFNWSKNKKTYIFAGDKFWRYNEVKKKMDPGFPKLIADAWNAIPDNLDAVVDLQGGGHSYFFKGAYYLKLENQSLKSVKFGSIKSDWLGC
Protocol: as §1

MMP-9 = MMP-9 (Homo sapiens, UniProt P14780); assay: biochemical
MMP-9, sequence (P14780 94-707, species assumed): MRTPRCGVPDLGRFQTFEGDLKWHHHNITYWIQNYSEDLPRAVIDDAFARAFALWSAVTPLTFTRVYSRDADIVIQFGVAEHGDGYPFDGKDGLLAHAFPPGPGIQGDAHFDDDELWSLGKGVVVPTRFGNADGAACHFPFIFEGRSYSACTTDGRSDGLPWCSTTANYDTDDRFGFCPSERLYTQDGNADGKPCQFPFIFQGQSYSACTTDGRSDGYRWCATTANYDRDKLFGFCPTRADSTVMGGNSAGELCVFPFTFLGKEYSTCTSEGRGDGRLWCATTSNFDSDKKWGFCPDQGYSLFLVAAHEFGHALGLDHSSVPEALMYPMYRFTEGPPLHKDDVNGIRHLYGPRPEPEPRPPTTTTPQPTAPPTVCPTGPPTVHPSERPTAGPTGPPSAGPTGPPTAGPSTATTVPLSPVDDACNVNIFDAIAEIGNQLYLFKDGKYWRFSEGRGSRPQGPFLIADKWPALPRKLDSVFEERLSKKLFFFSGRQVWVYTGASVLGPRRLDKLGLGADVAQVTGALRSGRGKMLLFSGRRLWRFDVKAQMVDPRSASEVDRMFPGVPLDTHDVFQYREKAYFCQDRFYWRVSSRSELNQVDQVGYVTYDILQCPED
Protocol: as §1

MMP-1 = MMP-1 (Homo sapiens, UniProt P03956); assay: biochemical
MMP-1, sequence (P03956 100-469, species assumed): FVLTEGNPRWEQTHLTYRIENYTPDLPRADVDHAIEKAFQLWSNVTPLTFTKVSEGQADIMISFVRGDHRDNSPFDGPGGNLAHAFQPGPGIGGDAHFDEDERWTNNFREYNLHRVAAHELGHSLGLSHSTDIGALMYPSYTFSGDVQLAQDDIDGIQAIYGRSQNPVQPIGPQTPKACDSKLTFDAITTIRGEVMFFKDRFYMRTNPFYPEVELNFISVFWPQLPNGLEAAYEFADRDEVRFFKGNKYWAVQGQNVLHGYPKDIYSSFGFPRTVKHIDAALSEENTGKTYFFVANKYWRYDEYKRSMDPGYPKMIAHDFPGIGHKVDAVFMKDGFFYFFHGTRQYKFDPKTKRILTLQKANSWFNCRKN
Protocol: as §1

[1] = tested on: DA rats with advanced PIA; assay: Severe (advanced) pristane-induced arthritis (AS ≥ 12); format: in vivo, rat
Protocol: Female DA/OlaHsd (D blood group allele and Agouti, also known as Dark Agouti), rats were obtained from Harlan Laboratories (Indianapolis, IN). Animals were allowed to acclimate for 48–72 hours prior to experimental use. Animals were fed standard chow ad lib during a 12-hour day/night cycle. PIA was induced in 5–7 week old animals (90–100 gm) by intradermal injection of 250 μl pristane (Sigma) divided into 3–5 sites at the base of the tail. Animals were monitored daily and disease severity of each limb was scored 0–4 using the method of Brand et al.. The severity scores for all limbs of individual animals were totaled to give an individual’s arthritis severity score (AS) ranging from zero for normal animals to maximum disease score of sixteen. Disease severity was assessed by at least two scorers and the inter-rater agreement (kappa) value was 0.806 as determined using MedCalc Statistical Software version 14.8.1 (MedCalc Software, Ostend, Belgium). In three separate trials, treatment was also blinded to scorers. There was no statistical difference between blinded and unblinded scoring of any treatment cohort. Treatment with saline (vehicle), RTD-1, or anti-arthritic agents was randomized and initiated when an animal first presented with an AS of 3 or more. […]

DA-PIA-FLS = assay: FLS proliferation (CyQuant); format: cell-based, DA rat; conditions: RTD-1 0–30 μg/ml; 24 or 48 h in culture; DNA staining
Protocol: Fibroblast-like synoviocytes (FLS) were isolated by enzymatic digestion of the synovial tissue from DA rats with PIA as previously described. Cells were washed and suspended in DMEM supplemented with 10% fetal bovine serum (Gibco, Grand Island, NY), 30 mg/ml L-glutamine (Sigma), 250 μg/ml amphotericin B (Sigma), and […] gentamicin (Gibco). After overnight culture, non-adherent cells were removed and adherent cells were cultured to approximately 70–90% confluence and passaged following detachment with 0.25% trypsin-EDTA for 3 min at 37°C. All experiments were performed with FLS after at least four passages.
All assays were performed with ≥ 7 replicates.

joint IL-1β = assay: Joint tissue cytokine analysis (IL-1β ELISA); format: in vivo, rat; conditions: 5 mg/kg s.c. once a day for four days, PIA rats AS ≥ 3; ELISA of joint extract; P = 0.0054
Protocol: Saline (control) and RTD-1 (5 mg/kg, s.c., qd) treated PIA rats were euthanized 4 days after disease onset (AS ≥ 3). The ankle joints and feet were snap frozen in liquid N2 and pulverized with mortar and pestle as described. One gram of tissue powder was extracted with 5 ml of ice cold 10 mM sodium phosphate, 150 mM NaCl, pH 7.4 (PBS) containing protease inhibitor tablets (cOmplete ULTRA with EDTA; Roche Diagnostics GmbH, Mannheim, Germany). Samples were vortexed for 30 seconds and extracts clarified by centrifugation. Supernatant IL-1β was quantified by ELISA (Life Technologies, Grand Island, NY).

Cathepsin V = Cathepsin V (Homo sapiens, UniProt O60911); assay: biochemical
Cathepsin V, sequence (O60911 114-334): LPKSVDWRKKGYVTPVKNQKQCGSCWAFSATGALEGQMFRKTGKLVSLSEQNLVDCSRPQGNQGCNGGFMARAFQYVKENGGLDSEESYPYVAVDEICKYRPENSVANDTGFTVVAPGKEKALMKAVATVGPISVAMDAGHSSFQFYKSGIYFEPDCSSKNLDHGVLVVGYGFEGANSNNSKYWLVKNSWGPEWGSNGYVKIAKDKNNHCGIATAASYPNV
Protocol: (§2) RTD-1 inhibition of Cat B (BPS Bioscience, San Diego, CA) and Cats C, H, K, L, S, and V (R & D Systems) was analyzed in a 96 well format with enzyme-specific substrates per manufacturer’s instructions and as described in Table 1. The activity of each enzyme was determined in the presence of 0 to 50 μg/ml RTD-1.
as §1

Cathepsin K = Cathepsin K (Homo sapiens, UniProt P43235); assay: biochemical
Cathepsin K, sequence (P43235 115-329, species assumed): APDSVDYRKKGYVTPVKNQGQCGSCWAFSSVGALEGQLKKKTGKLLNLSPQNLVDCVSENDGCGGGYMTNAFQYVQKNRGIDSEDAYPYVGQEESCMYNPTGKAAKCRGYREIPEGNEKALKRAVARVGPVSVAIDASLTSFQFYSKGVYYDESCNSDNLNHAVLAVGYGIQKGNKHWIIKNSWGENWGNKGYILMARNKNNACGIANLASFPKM
Protocol: as §2, §1

in vivo = conditions: plasma
Protocol: Eight to 12-week old male Sprague Dawley rats (Harlan) were fitted with a surgically implanted jugular vein catheter for sequential blood collection (Culex NxT Automated In Vivo Sampling System; BASi, West Lafayette, IN), and monitored daily. RTD-1 dissolved in saline was injected subcutaneously at 5 mg/kg to 4 animals. Approximately 200 μl of blood was collected before peptide administration and at 0.25, 0.5, 1, 2, 4, 6, 8, 12, 18, 24, 30, 36, 48, 60, and 72 h after RTD-1 injection. Blood was collected into vials containing K3EDTA and plasma was collected after centrifugation. Plasma concentrations of RTD-1 were determined after solid phase extraction (SPE) by weak cation exchange (Oasis WCX, Waters, Milford, MA) and quantitation by C18 RP-UPLC, photodiode array (PDA) detection, and electrospray-ionization mass spectrometry (ESI-MS). Chromatography was performed on an Acquity H-class UPLC with an analytical PDA detector using Empower 3 software (Waters). Quantitative mass spectrometry was performed on post PDA eluent using a Micromass Quattro Ultima mass spectrometer with MassLynx 4.1 (Waters). Pharmacokinetic analysis was performed using parametric population modeling with maximum likelihood estimation via the EM algorithm with sampling (MLEM) as implemented in the ADAPT 5 (Version 5.0.49) PK/PD Systems Analysis Software (Biomedical Simulations Resource, University of Southern California).

[2] = male, Sprague Dawley, rat, sc, 5 mg/kg
[3] = single 5 mg/kg s.c., male Sprague Dawley rats, n = 4, SPE, RP-UPLC/ESI-MS, 2-compartment population model

MMP-8, sequence (P22894 101-467, species assumed): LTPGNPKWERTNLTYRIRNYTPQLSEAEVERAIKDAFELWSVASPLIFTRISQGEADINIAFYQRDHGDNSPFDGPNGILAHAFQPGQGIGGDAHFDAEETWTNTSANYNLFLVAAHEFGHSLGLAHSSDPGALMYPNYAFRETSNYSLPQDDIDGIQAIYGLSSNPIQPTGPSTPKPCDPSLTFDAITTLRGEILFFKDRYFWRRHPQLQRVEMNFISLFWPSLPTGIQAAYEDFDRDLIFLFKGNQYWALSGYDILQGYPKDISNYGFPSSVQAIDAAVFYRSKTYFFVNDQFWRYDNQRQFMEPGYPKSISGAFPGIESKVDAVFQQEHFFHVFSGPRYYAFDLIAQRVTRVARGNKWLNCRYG

SMILES: CC[C@H](C)[C@@H]1NC(=O)[C@@H]2CSSC[C@H](NC(=O)[C@H](CCCNC(=N)N)NC(=O)[C@@H]3CSSC[C@H](NC1=O)C(=O)N[C@@H]([C@@H](C)O)C(=O)N[C@@H](CCCNC(=N)N)C(=O)NCC(=O)N[C@@H](Cc1ccccc1)C(=O)N3)C(=O)N[C@@H](CC(C)C)C(=O)N[C@H]1CSSC[C@H](NC(=O)[C@H](C(C)C)NC(=O)CNC(=O)[C@H](CCCNC(=N)N)NC(=O)[C@H](CCCNC(=N)N)NC1=O)C(=O)N[C@@H](CCCNC(=N)N)C(=O)N2 [RTD-1, rhesus θ-defensin 1] (cyclo(GFCRCLCRRGVCRCICTR); disulfide 3-16, 5-14, 7-12)
- IC50 (MMP-8): 12 ± 0.05 µM
- IC50 (MMP-13): 11 ± 0.4 µM
- IC50 (MMP-14): 7.8 ± 0.3 µM
- IC50 (MMP-3): > 50 µM
- IC50 (MMP-2): 19.6 ± 0.04 µM
- IC50 (MMP-9): 11.1 ± 0.2 µM
- IC50 (MMP-1): > 50 µM
- resolution of clinical disease by day 15 ([1]; 5 mg/kg s.c. daily until AS = 0, AS ≥ 12 before treatment): complete resolution of clinical disease in all RTD-1 treated rats
- RTD-1 treated animals that relapsed with joint disease ([1]; after treatment stop and a disease-free interval): three of five
- effect on FLS proliferation (DA-PIA-FLS): dose-dependently suppressed FLS proliferation
- average reduction of joint IL-1β vs vehicle (joint IL-1β): 44%
- IC50 (Cathepsin V): 1.8 ± 0.6 µM
- IC50 (Cathepsin K; IC50, substrate z-FR-AMC 10 μM, enzyme 0.77 nM, RTD-1 0-50 μg/ml): 0.027 ± 0.02 µM
- IC50 (Cathepsin K; IC50 against cathepsin K, as quoted in running text from Table 1): ~0.027 µM
- clearance (in vivo; [2]): 3.55 mL/h/kg
- half-life (in vivo; [2]): 32.3 h
- distribution clearance (in vivo; [3]): 22.3 mL/h/kg
- distribution half-life (in vivo; [3]): 0.285 h
